# How the values were obtained:
# [1] = tested on: pathogenic filamentus fungal organisms; assay: Antimicrobial activity (general statement)
# mouse T lymphocytes = assay: Immunosuppressive activity (proliferation of T lymphocytes stimulated with ionomycin plus PMA, tritiated thymidine uptake); type: cell-based, mouse (C57BI/6); details: general statement; no value given
# Description: A positive sample in this assay will inhibit-T-cell proliferation, as indicated by reduced tritiated thymidine uptake.
# Spleens from C57BI/6 mice are taken under sterile conditions and gently dissociated in ice-cold RPMI 1640 (trademark) culture medium (GIBCO (trademark)) supplemented with 10% heat-inactivated fetal calf serum (GIBCO (trademark)). Cells are pelleted by centrifugation at 1500 rpm for 8 minutes. Contaminating red cells are removed by treating the pellet with ammonium chloride lysing buffer (GIBCO (trademark)) for 2 minutes at 4° C. Cold medium is added and cells are again centrifuged at 1500 rpm for 8 minutes. […]
# Purified T lymphocytes are resuspended at 10^6 cells/ml in complete culture medium composed of RPMI 1640 (trademark) medium with 10% heat-inactivated fetal calf serum, […] glutamine, 1 mM sodium pyruvate, 20 µm 2-mercaptoethanol and 50 μg/ml gentamicin. […] The proliferation of T lymphocytes is assessed by measurement of tritiated […] incorporation. […] Radioactivity of filter discs corresponding to individual wells is measured by standard liquid scintillation counting method (Beta plate counter). Mean counts per minute of replicate wells are calculated and the results expressed as percent inhibition of tritiated thymidine uptake (proliferation) as follows: [formula]
# human FK-binding protein = assay: Inhibition of rotamase activity of FK-binding protein; type: biochemical
smiles,measurement,setting,value
"CCC1C=C(C)CC(C)CC(OC)C2OC(O)(CC(=O)N3CCCCC3C(=O)OC(C(C)=CC3CCC(O)C(OC)C3)C(C)C(O)CC1=O)C(C)CC2OC (stereo not drawn) [compound of the formula I, C9 -desoxo-FK-520]",antimicrobial activity,[1],has antimicrobial activity
same,immunosuppressive activity,mouse T lymphocytes,has immunosuppressive activity
same,inhibition of the rotamase activity of human FK-binding protein,human FK-binding protein,inhibits the rotamase activity of human FK-binding protein

# — patent publication US5494820A, “Streptomyces braegensis strain and its cultivation in a process for producing C9 -desoxo-FK-520” (Pfizer Inc., priority 1994, dated 1996)
